Test results: US11098061B2 (Celgene CAR LLC, priority 2013, dated 2021)

Tests used:
MK2 [1] = molecular target: T1, MK2 (Homo sapiens (Human), UniProt P49137); test: MK2 cellular assay (Hsp27 phosphorylation in Thp-1 cells); assay type: cell-based; conditions: differentiated Thp-1 cells, compound 1 hour, 50 ng/ml LPS 15 minutes, phosphorylation of Hsp27; read-out: MK2EC50
Method: Compounds were assayed in Thp-1 human acute monocytic leukemia cells to measure inhibition of MK2 activity. Thp-1 were grown in suspension in T225 flasks. Two days prior to assay, Thp-1 cells were spun down, counted and plated at 1×10^6 cells per well of a 12 well plate in complete media containing 10 ng/ml PMA (phorbol myristate acetate) to differentiate the cells. On day of assay, cells were washed with complete media, and compound was added to differentiated Thp-1 cells for 1 hour. Cells were washed again, and complete media containing 50 ng/ml LPS (lipopolysaccharide) was added. After 15 minutes, cells were washed once with PBS and lysed on ice with BioRad Bioplex lysis buffer. 20 μg total protein from lysates were loaded on gel and blots were probed for phosphorylation of the MK2 substrate Hsp27. Dose response inhibition of MK2 signaling in differentiated Thp-1 cells was used to determine the EC50 for compounds reported in Table A in the column entitled “MK2 EC50.”

MK2 [2] = molecular target: T1, MK2; test: MK2 modification assessment by whole protein mass spectrometry; assay type: binding; conditions: intact MK2, 60 min, 10-fold excess of compound to protein
How it was run: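 MK2 treated with compound is analysed intact by MALDI-TOF after C4 cleanup in sinapinic acid matrix. Percent modification is the centroid mass shift against control MK2 divided by compound mass.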

[3] = molecular target: p38a activated, mitogen-activated protein kinase-activated protein kinase 2 (MAPKAP-K2 or MK-2) enzyme (Homo sapiens (Human), UniProt P49137); test: MK2 Omnia continuous-read kinase assay for compound potency; assay type: biochemical; conditions: [MK-2]=0.4 nM, [ATP]=1.0 mM, [ST3-Sox]=10 μM
How it was run: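 Continuous Omnia fluorescence read (λex360/λem485) every 71 s after starting with 0.4 nM MK-2, with 1.0 mM ATP (appKM 8-10 μM) and 10 μM ST3-Sox substrate.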

T1 sequence (P49137 whole entry): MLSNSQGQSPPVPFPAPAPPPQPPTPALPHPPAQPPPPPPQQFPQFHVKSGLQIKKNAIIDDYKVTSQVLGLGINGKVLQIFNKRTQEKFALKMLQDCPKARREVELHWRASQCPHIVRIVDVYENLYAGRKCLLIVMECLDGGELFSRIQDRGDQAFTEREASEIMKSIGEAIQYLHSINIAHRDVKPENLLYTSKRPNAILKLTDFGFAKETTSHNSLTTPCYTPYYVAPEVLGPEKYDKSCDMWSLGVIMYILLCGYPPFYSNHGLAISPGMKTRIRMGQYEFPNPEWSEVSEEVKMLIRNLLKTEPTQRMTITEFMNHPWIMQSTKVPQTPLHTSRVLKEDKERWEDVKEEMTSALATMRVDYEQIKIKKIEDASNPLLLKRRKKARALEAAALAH
Sequence of p38a activated, mitogen-activated protein kinase-activated protein kinase 2 (MAPKAP-K2 or MK-2) enzyme (P49137 whole entry): as above

Row | Compound | EC50 (MK2 [1]) | MK2 Mass Mod (MK2 [2]) | IC50 [3]
1 | C=CC(=O)Nc1cc(-c2cc3c(cn2)CCc2c-3[nH]c3c2C(=O)NCC3)ccc1OCCOC [II-16, N-(2-(2-methoxyethoxy)-5-(7-oxo-6,7,8,9,10,11-hexahydro-5H-pyrido[3′,4′:4,5]pyrrolo[2,3-f]isoquinolin-2-yl)phenyl)acrylamide] | < 100 nM | E (mass modification of ≥70%) | < 100 nM
2 | C=CC(=O)Nc1cc(-c2cc3c(cn2)CCc2c-3[nH]c3c2C(=O)NCC3)ccc1F [II-3, N-(2-fluoro-5-(7-oxo-6,7,8,9,10,11-hexahydro-5H-pyrido[3′,4′:4,5]pyrrolo[2,3-f]isoquinolin-2-yl)phenyl)acrylamide] | < 100 nM | F (mass modification of 31-69%) | < 100 nM
3 | C=CC(=O)N1C[C@H](C)Oc2ccc(NC(=O)c3ccc4sc5c(c4c3)NC[C@@H](C)NC5=O)cc21 [III-53, (R)—N—((S)-4-acryloyl-2-methyl-3,4-dihydro-2H-benzo[b][1,4]oxazin-6-yl)-3-methyl-5-oxo-2,3,4,5-tetrahydro-1H-benzo[4,5]thieno[3,2-e][1,4]diazepine-9-carboxamide] | > 1000 nM | E (mass modification of ≥70%) | < 100 nM
4 | C=CC(=O)N1C[C@@H](C)Oc2ccc(NC(=O)c3ccc4sc5c(c4c3)NC[C@@H](C)NC5=O)cc21 [III-31, (R)—N—((R)-4-acryloyl-2-methyl-3,4-dihydro-2H-benzo[b][1,4]oxazin-6-yl)-3-methyl-5-oxo-2,3,4,5-tetrahydro-1H-benzo[4,5]thieno[3,2-e][1,4]diazepine-9-carboxamide] | < 100 nM | E (mass modification of ≥70%) | < 100 nM
5 | C=CC(=O)Nc1cc(-c2cc3c(cn2)CCc2c-3[nH]c3c2C(=O)NCC3)ccc1N1CCN(C)CC1 [II-1, N-(2-(4-methylpiperazin-1-yl)-5-(7-oxo-6,7,8,9,10,11-hexahydro-5H-pyrido[3′,4′:4,5]pyrrolo[2,3-f]isoquinolin-2-yl)phenyl)acrylamide] | < 100 nM | E (mass modification of ≥70%) | < 100 nM
6 | C=CC(=O)Nc1cc(-c2cc(-c3cc4c([nH]3)C3(CCCNC3)CNC4=O)ccn2)ccc1OCCOC (stereo not drawn) [Compound I-3] | > 1000 nM | E (mass modification of ≥70%) | < 100 nM
7 | C=CC(=O)Nc1cc(-c2ccc3c(ccc4sc5c(c43)NC[C@@H](C)NC5=O)n2)ccc1Cl [III-54, (R)—N-(2-chloro-5-(10-methyl-8-oxo-9,10,11,12-tetrahydro-8H-[1,4]diazepino[5′,6′:4,5]thieno[3,2-f]quinolin-3-yl)phenyl)acrylamide] | 101 to 500 nM | E (mass modification of ≥70%) | < 100 nM
8 | C=CC(=O)Nc1cc(-c2ccc3c(ccc4sc5c(c43)NC[C@@H](C)NC5=O)n2)ccc1C1CCN(C)CC1 [III-58, (R)—N-(5-(10-methyl-8-oxo-9,10,11,12-tetrahydro-8H-[1,4]diazepino[5′,6′:4,5]thieno[3,2-f]quinolin-3-yl)-2-(1-methylpiperidin-4-yl)phenyl)acrylamide] | 101 to 500 nM | E (mass modification of ≥70%) | < 100 nM
9 | C=CC(=O)N1CCc2ccc(NC(=O)c3ccc4cc5n(c4c3)C3(CCC3)CNC5=O)cc21 [Compound V-45, N-(1-acryloylindolin-6-yl)-1′-oxo-2′,3′-dihydro-1′H-spiro[cyclobutane-1,4′-pyrazino[1,2-a]indole]-7′-carboxamide] | 101 to 500 nM | E (mass modification of ≥70%) | < 100 nM
10 | C=CC(=O)Nc1ccccc1C(=O)Nc1cc(-c2cc3c([nH]2)C2(CCCNC2)CNC3=O)ccn1 (racemic) [Compound I-4, 2-acrylamido-N-(4-(4′-oxo-1′,4′,5′,6′-tetrahydrospiro[piperidine-3,7′-pyrrolo[3,2-c]pyridin]-2′-yl)pyridin-2-yl)benzamide] | > 1000 nM | E (mass modification of ≥70%) | < 100 nM
11 | C=CC(=O)Nc1ncccc1NC(=O)c1ccc2cc3n(c2c1)C1(CCC1)CNC3=O [Compound V-57, N-(2-acrylamidopyridin-3-yl)-1′-oxo-2′,3′-dihydro-1′H-spiro[cyclobutane-1,4′-pyrazino[1,2-a]indole]-7′-carboxamide] | 101 to 500 nM | E (mass modification of ≥70%) | < 100 nM
12 | C=CC(=O)N1CCC[C@@H](NC(=O)c2ccc3sc4c(c3c2)NC[C@@H](C)NC4=O)C1 [III-42] | > 1000 nM | E (mass modification of ≥70%) | < 100 nM
13 | C=CC(=O)N1CCOc2ccc(NC(=O)c3ccc4sc5c(c4c3)NC[C@@H](C)NC5=O)cc21 [III-11, (R)—N-(4-acryloyl-3,4-dihydro-2H-benzo[b][1,4]oxazin-6-yl)-3-methyl-5-oxo-2,3,4,5-tetrahydro-1H-benzo[4,5]thieno[3,2-e][1,4]diazepine-9-carboxamide] | < 100 nM | E (mass modification of ≥70%) | < 100 nM
14 | C=CC(=O)N1CC(C)Oc2ccc(NC(=O)c3ccc4cc5n(c4c3)C3(CCC3)CNC5=O)cc21 (racemic) [Compound V-50, N-(4-acryloyl-2-methyl-3,4-dihydro-2H-benzo[b][1,4]oxazin-6-yl)-1′-oxo-2′,3′-dihydro-1′H-spiro[cyclobutane-1,4′-pyrazino[1,2-a]indole]-7′-carboxamide (racemic)] | 101 to 500 nM | E (mass modification of ≥70%) | < 100 nM
15 | C=CC(=O)Nc1cc(-c2cc3c(cn2)CCc2c-3[nH]c3c2C(=O)NC2(CC2)C3)cnc1OC [II-5, N-(2-methoxy-5-(7′-oxo-5′,6′,7′,8′,10′,11′-hexahydrospiro[cyclopropane-1,9′-pyrido[3′,4′:4,5]pyrrolo[2,3-f]isoquinolin]-2′-yl)pyridin-3-yl)acrylamide] | < 100 nM | E (mass modification of ≥70%) | < 100 nM
16 | C=CC(=O)Nc1cc(NC(=O)c2ccc3cc4n(c3c2)C2(CCC2)CNC4=O)ccc1F [Compound V-54, N-(3-acrylamido-4-fluorophenyl)-1′-oxo-2′,3′-dihydro-1′H-spiro[cyclobutane-1,4′-pyrazino[1,2-a]indole]-7′-carboxamide] | 101 to 500 nM | E (mass modification of ≥70%) | 101 to 500 nM
17 | C=CC(=O)Nc1cc(-c2nccc(-c3cc4c([nH]3)C3(CCCNC3)CNC4=O)n2)ccc1OCCOC (racemic) [Compound I-7, N-(2-(2-methoxyethoxy)-5-(4-(4′-oxo-1′,4′,5′,6′-tetrahydrospiro[piperidine-3,7′-pyrrolo[3,2-c]pyridin]-2′-yl)pyrimidin-2-yl)phenyl)acrylamide] | 501 to 999 nM | E (mass modification of ≥70%) | < 100 nM
18 | C=CC(=O)Nc1cc(-c2cc3c(ccc4c5c(n(C)c43)CCC5=O)cn2)cnc1OC [II-e-21, N-(2-methoxy-5-(10-methyl-7-oxo-7,8,9,10-tetrahydrocyclopenta[4,5]pyrrolo[2,3-f]isoquinolin-2-yl)pyridin-3-yl)acrylamide] | > 1000 nM | E (mass modification of ≥70%) | 501 to 999 nM
